Measured values: US5489600A, “Piperidyl amides, sulfonamides and sulfoxamides as inhibitors of cholesterol biosynthesis” (priority 1994, dated 1996)

Target: T1, oxidosqualene cyclase (Rattus norvegicus, UniProt P48450)
T1 construct: Oxidosqualene cyclase is purified from rat liver microsomes; from tissue; host or cells: rat liver microsomes (lauryl maltoside solubilization, FPLC anion-exchange chromatography)
T1 sequence (P48450 1-733): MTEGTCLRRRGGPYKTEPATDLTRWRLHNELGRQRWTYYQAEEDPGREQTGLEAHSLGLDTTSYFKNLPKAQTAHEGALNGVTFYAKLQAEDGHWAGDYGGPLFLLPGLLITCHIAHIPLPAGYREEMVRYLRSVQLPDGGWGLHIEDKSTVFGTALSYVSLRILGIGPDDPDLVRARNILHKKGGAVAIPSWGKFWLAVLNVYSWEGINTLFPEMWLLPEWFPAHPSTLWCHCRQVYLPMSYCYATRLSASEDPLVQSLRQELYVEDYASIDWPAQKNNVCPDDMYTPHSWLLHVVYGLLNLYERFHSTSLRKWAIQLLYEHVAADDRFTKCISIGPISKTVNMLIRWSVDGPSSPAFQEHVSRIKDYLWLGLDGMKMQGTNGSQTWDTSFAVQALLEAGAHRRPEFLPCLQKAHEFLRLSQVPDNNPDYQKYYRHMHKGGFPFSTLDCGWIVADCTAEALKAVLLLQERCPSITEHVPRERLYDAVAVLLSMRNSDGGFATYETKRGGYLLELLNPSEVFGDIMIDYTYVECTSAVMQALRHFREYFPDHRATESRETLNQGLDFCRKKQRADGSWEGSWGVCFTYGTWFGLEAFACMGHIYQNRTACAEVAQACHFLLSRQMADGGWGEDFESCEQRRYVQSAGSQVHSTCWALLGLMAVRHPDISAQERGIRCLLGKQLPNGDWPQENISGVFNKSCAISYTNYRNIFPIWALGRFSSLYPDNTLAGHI
Test: Inhibition of Purified Oxidosqualene Cyclase (I10)
Format: biochemical
Details: 10 μM test compound; oxidosqualene cyclase purified from rat liver microsomes; [3H]squalene monoepoxide 10 μM; pH 7.4
Procedure: Inhibition of Purified Oxidosqualene Cycloase (I10)
Oxidosqualene cyclase is purified from rat liver microsomes by the sequential methods of: 1) solubilization with the detergent lauryl maltoside and 2) FPLC anion-exchange chromatography. Compounds are tested to determine their ability to inhibit the conversion of squalene monoepoxide to lanosterol catalyzed by the purified oxidosqualene cyclase. The reaction mixture (final volume, 200 μL), contains potassium phosphate buffer (50 mM, pH 7.4), Na2 EDTA (500 μM), Tween (80 (0.1%), [3H]squalene monoepoxide (10 μM of the racemic mixture, 50 Ci/mol), test compound (10 μM) and purified oxidosqualene cyclase (50 μg). The reagents, prior to mixing are equilibrated at 37° C. for 10 minutes. The reaction is initiated by adding enzyme. The reaction is terminated by the addition of 5 mL of CHCl3 /MeOH (2:1, v/v), 0.8 mL of water and 10 μg each of squalene monoepoxide, squalene diepoxide, lanosterol and cholesterol. The organic layer is isolated and evaporated to dryness under nitrogen. The residue is dissolved in 200 μL of hexane/ethanol (99:1) and the sample is subjected to HPLC separation using a C18 reverse phase column eluted isocratically with 3.6% water in methanol. Radioactivity is quantitated using an in-line scintillation counter. Oxidosqualene cyclase activity is expressed as the percent inhibition of oxidosqualene cyclase activity at 10 μM test compound (I10 values).
Table 1 provides a summary of the testing data for the inhibition of oxidosqualene cyclase by compounds of formula (I) and formula (II).

SMILES | inhibition at 10 µM [%]
CC(C)CCSCCCCC(=O)N1CCC(C(C)CO)CC1 (centres unmarked) [100,759, 1-(1-Oxopentyl-5-isopentylsulfide)-4-[(2-hydroxy-1-methyl)ethyl]piperidine] | 76
CC(C)CCSCCCCC(=O)N1CCCCC1 [101,140, 1-(1-Oxopentyl-5-isopentylsulfide)piperidine] | 38
CC(CO)C1CCN(C(=O)CCCCSc2ccccc2)CC1 (centres unmarked) [101,550, 1-(1-Oxopentyl-5-phenylsulfide)-4-[(2-hydroxy-1-methyl)ethyl]piperidine] | 82

Further lines, results first:

inhibition at 10 µM [%] | SMILES
29 | CCCCCCCCCCCCS(=O)(=O)N1CCC(C(C)CO)CC1 (centres unmarked) [102,055, 1-(1-Sulfonododecyl)-4[(2-hydroxy-1-methyl)ethyl]piperidine]
46 | CCCCCCCCCCCC[S+]([O-])N1CCC(C(C)CO)CC1 (centres unmarked) [101,915, 1-(1-Sulfoxododecyl)-4-[(2-hydroxy-1-methyl)ethyl]piperidine]
